Key:
Details in all cases: growth mode: biofilm, 24 h; exposure time: 24 h
colistin [1] = compound: T1, CCC(C)CCCC(=O)N[C@@H](CCN)C(=O)N[C@H](C(=O)N[C@@H](CCN)C(=O)N[C@H]1CCNC(=O)[C@H]([C@@H](C)O)NC(=O)[C@H](CCN)NC(=O)[C@H](CCN)NC(=O)[C@H](CC(C)C)NC(=O)[C@@H](CC(C)C)NC(=O)[C@H](CCN)NC1=O)[C@@H](C)O [colistin]; experiment: minimum concentration eradicating biofilm below detection limit (MCK-E); higher = more biofilm tolerance
Experimental: (§1)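 Clinical P. aeruginosa isolates were grown as static biofilms for 24 h at 37 °C in LB in half-area 96-well plates, then exposed for 24 h to colistin at 1, 4, 16, 64, 256 or […]. Surviving CFU were counted by spotting serial dilutions. MCK is the lowest tested concentration giving the stated log reduction in CFU versus an untreated control; '>1024' means the reduction was not reached at the top dose, and 1 is the lowest dose tested (≤1).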

tobramycin [2] = compound: T2, NC[C@H]1O[C@H](O[C@H]2[C@H](O)[C@@H](O[C@H]3O[C@H](CO)[C@@H](O)[C@H](N)[C@H]3O)[C@H](N)C[C@@H]2N)[C@H](N)C[C@@H]1O [tobramycin]; experiment: as above
Experimental: as §1, with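 “tobramycin” for “colistin”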

colistin [3] = compound: T1, colistin; experiment: minimum concentration of killing, 1-log CFU reduction of biofilm (MCK90); higher = more biofilm tolerance
Experimental: as §1

colistin [4] = compound: T1, colistin; experiment: minimum concentration of killing, 2-log CFU reduction of biofilm (MCK99); higher = more biofilm tolerance
Experimental: as §1

tobramycin [5] = compound: T2, tobramycin; experiment: minimum concentration of killing, 1-log CFU reduction of biofilm (MCK90); higher = more biofilm tolerance
Experimental: as §1, with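 “tobramycin” for “colistin”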

tobramycin [6] = compound: T2, tobramycin; experiment: minimum concentration of killing, 2-log CFU reduction of biofilm (MCK99); higher = more biofilm tolerance
Experimental: as §1, with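 “tobramycin” for “colistin”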

colistin [7] = compound: T1, colistin; experiment: minimum concentration of killing, 4-log CFU reduction of biofilm (MCK99.99); higher = more biofilm tolerance
Experimental: as §1

tobramycin [8] = compound: T2, tobramycin; experiment: as above
Experimental: as §1, with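 “tobramycin” for “colistin”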

Test System | minimum concentration eradicating biofilm below detection limit (colistin [1]) [µg/mL] | minimum concentration eradicating biofilm below detection limit (tobramycin [2]) [µg/mL] | minimum concentration of killing (colistin [3]) [µg/mL] | minimum concentration of killing (colistin [4]) [µg/mL] | minimum concentration of killing (tobramycin [5]) [µg/mL] | minimum concentration of killing (tobramycin [6]) [µg/mL] | minimum concentration of killing (colistin [7]) [µg/mL] | minimum concentration of killing (tobramycin [8]) [µg/mL]
Pseudomonas aeruginosa clinical isolate ESP040 | 64 | 64 | 64 | 64 | 4 | 16 | 64 | 64
Pseudomonas aeruginosa clinical isolate ESP044 | 256 | 256 | 64 | 64 | 4 | 64 | 256 | 256
Pseudomonas aeruginosa clinical isolate ESP046 | 256 | 1020 | 256 | 256 | 16 | 1020 | 256 | 1020
Pseudomonas aeruginosa clinical isolate ESP050 | 256 | 1020 | 64 | 256 | 64 | 1020 | 256 | 1020
Pseudomonas aeruginosa clinical isolate ESP054 | 256 | 256 | 64 | 256 | 4 | 4 | 256 | 256
Pseudomonas aeruginosa clinical isolate ESP055 | 256 | 64 | 64 | 256 | ≤ 1 | 16 | 256 | 16
Pseudomonas aeruginosa clinical isolate ESP058 | 256 | 64 | 256 | 256 | 4 | 16 | 256 | 64
Pseudomonas aeruginosa clinical isolate ESP059 | 256 | 256 | 64 | 256 | ≤ 1 | 4 | 256 | 256
Pseudomonas aeruginosa clinical isolate ESP060 | 1020 | > 1020 | 256 | 256 | > 1020 | > 1020 | 1020 | > 1020
Pseudomonas aeruginosa clinical isolate ESP063 | 256 | > 1020 | ≤ 1 | 16 | 256 | 1020 | 256 | > 1020
Pseudomonas aeruginosa clinical isolate ESP066 | 1020 | > 1020 | 256 | 256 | 256 | 256 | 1020 | > 1020
Pseudomonas aeruginosa clinical isolate ESP067 | 256 | 1020 | 64 | 256 | 4 | 16 | 256 | 256
Pseudomonas aeruginosa clinical isolate ESP070 | 1020 | > 1020 | 64 | 256 | 1020 | 1020 | 1020 | > 1020
Pseudomonas aeruginosa clinical isolate ESP072 | 256 | 256 | 64 | 256 | 4 | 16 | 256 | 256
Pseudomonas aeruginosa clinical isolate ESP073 | 256 | 256 | 16 | 256 | 16 | 16 | 256 | 64
Pseudomonas aeruginosa clinical isolate ESP075 | 256 | 256 | 256 | 256 | ≤ 1 | 4 | 256 | 64
Pseudomonas aeruginosa clinical isolate ESP076 | 256 | > 1020 | 256 | 256 | > 1020 | > 1020 | 256 | > 1020
Pseudomonas aeruginosa clinical isolate ESP077 | 256 | > 1020 | 64 | 64 | 1020 | 1020 | 256 | 1020
